According to US20060111305A1, “Metabolites of certain [1,4]diazepino[6,7,1-ij]quinoline derivatives and methods of preparation and use thereof” (Wyeth, priority 2004, published 2006):
Where two headings read alike, the source gives them in different places.

Tests used:
[1] = Dog plasma metabolite profiles after single 15 mg/kg oral capsule of [14C]DCDQ; format: in vivo, beagle dogs; conditions: for concentration at 2 h / concentration at 4 h / concentration at 8 h / concentration at 24 h / concentration at 48 h: male, beagle, dog, plasma, oral, 15 mg/kg, read-out: Estimated plasma concentration in dogs
Description: (§1) For plasma profiles, a TopCount NXT radiometric microplate reader (Perkin Elmer) was used to analyze the radioactivity in collected HPLC fractions. The limit of detection by TopCount was about 1 ng equivalent/mL. A Flo-One β Model A525 radioactivity detector (Perkin Elmer) with a 250 μL LQTR flow cell was used to acquire data for urine and fecal samples. The flow rate of Ultima Flow M scintillation fluid was 1 mL/min, providing a mixing ratio of scintillation cocktail to mobile phase of 5:1. The limits of detection by Flo-One detector were about 200 ng equivalents/mL for urine and 12 ng equivalents/g for feces.
Plasma samples were analyzed for metabolite profiles by HPLC. Aliquots of plasma were mixed with two volumes of cold methanol containing 0.1% trifluoroacetic acid (TFA), placed on ice for about 2 minutes and then centrifuged. The supernatant fluid was transferred to a clean tube and evaporated at 22° C. under nitrogen in a Zymark TurboVap LV (Caliper Life Sciences, Hopkinton, Mass.) to a volume of about 0.3 mL. The residue was centrifuged, the supernatant volume measured and extraction efficiency determined by analysis of duplicate 20 μL aliquots for radioactivity. A 200 μL aliquot of the supernatant was injected onto the HPLC column and the effluent was collected at 20 second intervals into 96-well Lumaplates (Perkin Elmer). The plates were dried overnight in an oven at 40° C. and analyzed by a TopCount. Plasma extracts were also analyzed by LC/MS.
(§2) A Waters model 2690 HPLC system (Waters Corp., Milford, Mass.) with a built-in autosampler was used for analysis. Separations were accomplished on a Phenomenex Luna C18(2) column (150×2.0 mm, 5 μm) (Phenomenex, Torrance, Calif.). The sample chamber of the autosampler was maintained at 4° C., while the column was at ambient temperature of about 20° C. A variable wavelength UV detector set to monitor 250 nm and a Flo-One β Model A525 radioactivity detector were used for data acquisition. The HPLC mobile phase consisted of 10 mM ammonium acetate, pH 4.5 (A) and acetonitrile (B), and was delivered at 0.2 mL/min. Chromatographic condition A was used for dose analysis, while condition B was used for analysis of urine and plasma, brain and fecal extracts.

[2] = Metabolites of DCDQ identified in dogs by LC/MS analysis (Table 26); format: in vivo, beagle dogs; conditions: P = plasma, U = urine, B = brain, F = feces
Excerpt: An Agilent Model 1100 HPLC system (Agilent Technologies, Palo Alto, Calif.) including an autosampler and diode array UV detector was used for LC/MS analysis. The UV detector was set to monitor 200 to 400 nm. For selected LC/MS analysis, radiochromatograms were acquired using a β-Ram model 3 radioactivity flow detector (IN/US Systems Inc., Tampa, Fla.) equipped with a solid scintillant flow cell. LC conditions were the same as the condition B described above.
The mass spectrometer used for metabolite characterization was a Micromass Q-TOF-2 quadrupole time-of-flight hybrid mass spectrometer (Waters). The mass spectrometer was equipped with an electrospray ionization (ESI) interface and operated in the positive ionization mode. Collision energy settings of 5 and 30 eV were used for full MS and MS/MS scans, respectively. Settings for the mass spectrometer are listed below.

[3] = Metabolites of DCDQ identified in rats by LC/MS analysis (Table 18); format: in vivo, Sprague-Dawley rats; conditions: P = plasma, U = urine, B = brain, F = feces
Description: An Agilent Model 1100 HPLC system (Agilent Technologies, Wilmington, Del.) including an autosampler and diode array UV detector was used for LC/MS analysis of plasma and urine samples. The UV detector was set to monitor 200 to 400 nm. For selected LC/MS analyses, radiochromatograms were acquired using a β-Ram model 3 radioactivity flow detector (IN/US Systems Inc., Tampa, Fla.) equipped with a solid scintillant flow cell. Fecal samples were also analyzed using a Waters Alliance model 2690 HPLC system. It was equipped with a built-in autosampler and a model 996 diode array UV detector set to 210-350 nm. The HPLC flow was split between a Radiomatic model 150TR flow scintillation analyzer (Perkin Elmer) and the mass spectrometer. Other HPLC conditions were the same as condition B described above.
The mass spectrometer used for metabolite characterization for plasma and urine was a Micromass Q-TOF-2 quadrupole time-of-flight hybrid mass spectrometer (Waters). The mass spectrometer was equipped with an electrospray ionization (ESI) interface and operated in the positive ionization mode. Collision energy settings of 5 and 30 eV were used for full MS and MS/MS scans, respectively. Settings for the mass spectrometer are listed below.
A Micromass Quattro Micro mass spectrometer (Waters) was also used to analyze the fecal samples. It was equipped with an electrospray ionization (ESI) interface and operated in the positive ionization mode. Settings for the mass spectrometer are listed below.
LC/MS/MS in the selected reaction-monitoring (SRM) mode (LC/SRM) was conducted with the triple quadruple mass spectrometer to monitor DCDQ and its metabolites in fecal samples. The transitions monitored are listed below.

[4] = Dog urinary excretion and metabolite profiles after oral capsule of [14C]DCDQ; format: in vivo, beagle dogs
Description: Blood samples were collected from the jugular vein at 2, 4, 8, 24 and 48 hour after dose administration into tubes containing potassium EDTA as the anticoagulant and then placed on ice. Aliquots of 50 μL were removed for combustion and determination of radioactivity content. Plasma was immediately obtained from the remaining blood by centrifugation at 4° C. Urine samples were collected into tubes on dry ice at intervals of 0-8, 8-24 and 24-48 hour post-dose. Fecal samples were collected at intervals of 0-8, 8-24 and 24-48 hour post-dose at room temperature, and were homogenized. The biological specimens were stored at approximately −70° C. until analysis.
as §1
Urine was analyzed for radioactivity concentration and analyzed by HPLC with radioactivity flow detection for metabolite profiles by direct injection to the HPLC column. LC/MS analyses for metabolite identification were also carried out with urine samples.
as §2

Row | Compound | Chromatographic distribution of radioactivity in dog plasma ([1]; 2 hr, dog 2) [%] | Chromatographic distribution of radioactivity in dog plasma ([1]; 4 hr, dog 1) [%] | Chromatographic distribution of radioactivity in dog plasma ([1]; 4 hr, dog 2) [%] | Chromatographic distribution of radioactivity in dog plasma ([1]; 24 hr, dog 2) [%] | Chromatographic distribution of radioactivity in dog plasma ([1]; 24 hr, dog 3) [%] | Estimated plasma concentration in dogs ([1]; 48 hr, dog 3) | concentration at 2 h ([1]; 2 hr, dog 2) [ng/mL] | concentration at 4 h ([1]; 4 hr, dog 1) [ng/mL] | concentration at 4 h ([1]; 4 hr, dog 2) [ng/mL] | concentration at 24 h ([1]; 24 hr, dog 2) [ng/mL] | concentration at 24 h ([1]; 24 hr, dog 3) [ng/mL] | Matrix [2] | Matrix [3] | Chromatographic distribution of radioactivity in dog urine ([4]; 8-24 hr, Mean) [%] | Chromatographic distribution of radioactivity in dog urine ([4]; 8-24 hr, dog 1) [%] | Chromatographic distribution of radioactivity in dog urine ([4]; 8-24 hr, dog 2) [%] | Chromatographic distribution of radioactivity in dog urine ([4]; 8-24 hr, dog 3) [%] | Chromatographic distribution of radioactivity in dog urine ([4]; 24-48 hr, Mean) [%] | Chromatographic distribution of radioactivity in dog urine ([4]; 24-48 hr, dog 1) [%] | Chromatographic distribution of radioactivity in dog urine ([4]; 24-48 hr, dog 2) [%] | other results
1 | OC1CN2C[C@@H]3CCC[C@@H]3c3cccc(c32)CN1 (stereo partly drawn) [Metabolite M1, hydroxy DCDQ] | 2.6 | 8.0 | 4.9 | 2.1 | 6.4 | BQL | 32.9 | 40 | 80.9 | 23 | 125 | P, U | P, U, B | 6.6 | 8.3 | 4.7 | 6.7 | 5.7 | 4.4 | 7.6 | Chromatographic distribution of radioactivity in dog plasma ([1]; 2 hr, dog 1): 8.4%; Chromatographic distribution of radioactivity in dog plasma ([1]; 8 hr, dog 1): 8.0%; Chromatographic distribution of radioactivity in dog plasma ([1]; 8 hr, dog 2): 4.7%; Chromatographic distribution of radioactivity in dog plasma ([1]; 8 hr, dog 3): 9.7%; Chromatographic distribution of radioactivity in dog plasma ([1]; 24 hr, dog 1): 6.8%; Chromatographic distribution of radioactivity in dog plasma ([1]; 48 hr, dog 1): 12%; Chromatographic distribution of radioactivity in dog plasma ([1]; 48 hr, dog 2): 6.7%; concentration at 2 h ([1]; 2 hr, dog 1): 30.1 ng/mL; concentration at 8 h ([1]; 8 hr, dog 1): 43.3 ng/mL; concentration at 8 h ([1]; 8 hr, dog 2): 61.9 ng/mL; concentration at 8 h ([1]; 8 hr, dog 3): 24.8 ng/mL; concentration at 24 h ([1]; 24 hr, dog 1): 104 ng/mL; concentration at 48 h ([1]; 48 hr, dog 1): 58 ng/mL; concentration at 48 h ([1]; 48 hr, dog 2): 44.7 ng/mL; Chromatographic distribution of radioactivity in dog urine ([4]; 24-48 hr, dog 3): 7.6%; Chromatographic distribution of radioactivity in dog urine ([4]; 24-48 hr, dog 4): 3.2%
2 | OC1[C@@H]2CCC[C@@H]2c2cccc3c2N1CCNC3 (stereo partly drawn) [Metabolite M2, hydroxy DCDQ] | 8.0 | 6.6 | 12 | 5.0 | 7.0 | BQL | 99.5 | 33.1 | 192 | 55.3 | 135 | P, U, F | P, U | 24 | 21 | 26 | 26 | 22 | 25 | 18 | Estimated plasma concentration in dogs ([1]; 2 hr, dog 1): BQL^b; Estimated plasma concentration in dogs ([1]; 8 hr, dog 1): BQL; Estimated plasma concentration in dogs ([1]; 8 hr, dog 2): BQL; Estimated plasma concentration in dogs ([1]; 8 hr, dog 3): BQL; Estimated plasma concentration in dogs ([1]; 24 hr, dog 1): BQL; Estimated plasma concentration in dogs ([1]; 48 hr, dog 1): BQL; Estimated plasma concentration in dogs ([1]; 48 hr, dog 2): BQL; Chromatographic distribution of radioactivity in dog urine ([4]; 0-8 hr, dog no. not printed (dog 1 by footnote a)): 10%; Chromatographic distribution of radioactivity in dog urine ([4]; 24-48 hr, dog 3): 22%; Chromatographic distribution of radioactivity in dog urine ([4]; 24-48 hr, dog 4): 21%
